Measurements reported in publication PMC8909834, “An Orally Bioavailable and Highly Efficacious Inhibitor of CDK9/FLT3 for the Treatment of Acute Myeloid Leukemia” (Cancers, 2022).

Tests used:
Test in all cases: Kinase Hotspot radiolabel assay
Assay type in all cases: biochemical
Settings in all cases: read-out: % Residual Activity
[1] = target: T1, PKCeta (Homo sapiens, UniProt P24723)
T1 construct: purchased Reaction Biology Corporation (Kinase HotSpot)
How it was run: (§1)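 Specificity was assessed across 369 kinases in a radioactive Hotspot assay, testing one compound concentration (1 µM). For any kinase inhibited above 90%, a Ki value was subsequently obtained.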

[2] = target: T2, CDK19/cyclin C (Homo sapiens, UniProt Q9BWU1)
T2 construct: purchased Reaction Biology Corporation (Kinase HotSpot)
How it was run: as §1

[3] = target: T3, ABL1 (Homo sapiens, UniProt P00519)
T3 construct: purchased Reaction Biology Corporation (Kinase HotSpot)
How it was run: as §1

[4] = target: T4, HIPK1 (Homo sapiens, UniProt Q86Z02)
T4 construct: purchased Reaction Biology Corporation (Kinase HotSpot)
How it was run: as §1

[5] = target: T5, c-Src (Homo sapiens, UniProt P12931)
T5 construct: purchased Reaction Biology Corporation (Kinase HotSpot)
How it was run: as §1

[6] = target: T6, MLK1/MAP3K9 (Homo sapiens, UniProt P80192)
T6 construct: purchased Reaction Biology Corporation (Kinase HotSpot)
How it was run: as §1

[7] = target: T7, BTK (Homo sapiens, UniProt Q06187)
T7 construct: purchased Reaction Biology Corporation (Kinase HotSpot)
How it was run: as §1

[8] = target: T8, p70S6Kb/RPS6KB2 (Homo sapiens, UniProt Q9UBS0)
T8 construct: purchased Reaction Biology Corporation (Kinase HotSpot)
How it was run: as §1

[9] = target: T9, STK25/YSK1 (Homo sapiens, UniProt O00506)
T9 construct: purchased Reaction Biology Corporation (Kinase HotSpot)
How it was run: as §1

[10] = target: T10, MEKK2 (Homo sapiens, UniProt Q9Y2U5)
T10 construct: purchased Reaction Biology Corporation (Kinase HotSpot)
How it was run: as §1

[11] = target: T11, EPHB3 (Homo sapiens, UniProt P54753)
T11 construct: purchased Reaction Biology Corporation (Kinase HotSpot)
How it was run: as §1

[12] = target: T12, MINK/MINK1 (Homo sapiens, UniProt Q8N4C8)
T12 construct: purchased Reaction Biology Corporation (Kinase HotSpot)
How it was run: as §1

[13] = target: T13, DDR1 (Homo sapiens, UniProt Q08345)
T13 construct: purchased Reaction Biology Corporation (Kinase HotSpot)
How it was run: as §1

[14] = target: T14, LATS2 (Homo sapiens, UniProt Q9NRM7)
T14 construct: purchased Reaction Biology Corporation (Kinase HotSpot)
How it was run: as §1

[15] = target: T15, PDK1/PDPK1 (Homo sapiens, UniProt O15530)
T15 construct: purchased Reaction Biology Corporation (Kinase HotSpot)
How it was run: as §1

[16] = target: T16, HIPK2 (Homo sapiens, UniProt Q9H2X6)
T16 construct: purchased Reaction Biology Corporation (Kinase HotSpot)
How it was run: as §1

[17] = target: T17, CDK18/cyclin Y (PCTK3) (Homo sapiens, UniProt Q07002)
T17 construct: purchased Reaction Biology Corporation (Kinase HotSpot)
How it was run: as §1

[18] = target: T18, ROS/ROS1 (Homo sapiens, UniProt P08922)
T18 construct: purchased Reaction Biology Corporation (Kinase HotSpot)
How it was run: as §1

[19] = target: T19, MST4 (Homo sapiens, UniProt Q9P289)
T19 construct: purchased Reaction Biology Corporation (Kinase HotSpot)
How it was run: as §1

[20] = target: T20, MNK1 (Homo sapiens, UniProt Q9BUB5)
T20 construct: purchased Reaction Biology Corporation (Kinase HotSpot)
How it was run: as §1

[21] = target: T21, TAOK3/JIK (Homo sapiens, UniProt Q9H2K8)
T21 construct: purchased Reaction Biology Corporation (Kinase HotSpot)
How it was run: as §1

[22] = target: T22, ULK1 (Homo sapiens, UniProt O75385)
T22 construct: purchased Reaction Biology Corporation (Kinase HotSpot)
How it was run: as §1

[23] = target: T23, CK1d (Homo sapiens, UniProt P48730)
T23 construct: purchased Reaction Biology Corporation (Kinase HotSpot)
How it was run: as §1

[24] = target: T24, DRAK1/STK17A (Homo sapiens, UniProt Q9UEE5)
T24 construct: purchased Reaction Biology Corporation (Kinase HotSpot)
How it was run: as §1

[25] = target: T25, PDGFRb (Homo sapiens, UniProt P09619)
T25 construct: purchased Reaction Biology Corporation (Kinase HotSpot)
How it was run: as §1

[26] = target: T26, SLK/STK2 (Homo sapiens, UniProt Q9H2G2)
T26 construct: purchased Reaction Biology Corporation (Kinase HotSpot)
How it was run: as §1

[27] = target: T27, CDK5/p25 (Homo sapiens, UniProt Q00535)
T27 construct: purchased Reaction Biology Corporation (Kinase HotSpot)
How it was run: as §1

[28] = target: T28, TXK (Homo sapiens, UniProt P42681)
T28 construct: purchased Reaction Biology Corporation (Kinase HotSpot)
How it was run: as §1

[29] = target: T29, CDK2/cyclin A (Homo sapiens, UniProt P24941)
T29 construct: purchased Reaction Biology Corporation (Kinase HotSpot)
How it was run: as §1

[30] = target: T30, DCAMKL2 (Homo sapiens, UniProt Q8N568)
T30 construct: purchased Reaction Biology Corporation (Kinase HotSpot)
How it was run: as §1

T30 sequence (Q8N568 whole entry): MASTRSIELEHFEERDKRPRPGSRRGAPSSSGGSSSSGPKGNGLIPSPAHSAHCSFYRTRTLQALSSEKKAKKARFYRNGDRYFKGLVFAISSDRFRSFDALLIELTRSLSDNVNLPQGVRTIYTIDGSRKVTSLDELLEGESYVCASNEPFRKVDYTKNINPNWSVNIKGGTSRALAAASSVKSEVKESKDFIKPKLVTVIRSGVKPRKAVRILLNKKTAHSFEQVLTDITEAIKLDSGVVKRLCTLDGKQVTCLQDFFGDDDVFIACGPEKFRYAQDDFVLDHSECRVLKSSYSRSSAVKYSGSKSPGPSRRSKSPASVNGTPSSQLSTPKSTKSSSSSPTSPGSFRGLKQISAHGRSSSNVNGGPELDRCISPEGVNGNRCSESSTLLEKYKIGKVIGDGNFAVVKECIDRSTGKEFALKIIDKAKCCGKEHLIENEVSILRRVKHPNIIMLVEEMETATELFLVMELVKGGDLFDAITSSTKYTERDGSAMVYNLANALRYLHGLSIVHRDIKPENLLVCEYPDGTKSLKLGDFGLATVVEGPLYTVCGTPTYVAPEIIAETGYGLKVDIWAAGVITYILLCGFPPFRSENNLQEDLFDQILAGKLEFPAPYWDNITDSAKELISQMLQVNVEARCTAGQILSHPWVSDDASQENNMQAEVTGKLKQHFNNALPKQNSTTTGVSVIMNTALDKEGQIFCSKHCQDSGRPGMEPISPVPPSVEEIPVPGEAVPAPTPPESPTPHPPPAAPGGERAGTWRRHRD
T10 sequence (Q9Y2U5 whole entry): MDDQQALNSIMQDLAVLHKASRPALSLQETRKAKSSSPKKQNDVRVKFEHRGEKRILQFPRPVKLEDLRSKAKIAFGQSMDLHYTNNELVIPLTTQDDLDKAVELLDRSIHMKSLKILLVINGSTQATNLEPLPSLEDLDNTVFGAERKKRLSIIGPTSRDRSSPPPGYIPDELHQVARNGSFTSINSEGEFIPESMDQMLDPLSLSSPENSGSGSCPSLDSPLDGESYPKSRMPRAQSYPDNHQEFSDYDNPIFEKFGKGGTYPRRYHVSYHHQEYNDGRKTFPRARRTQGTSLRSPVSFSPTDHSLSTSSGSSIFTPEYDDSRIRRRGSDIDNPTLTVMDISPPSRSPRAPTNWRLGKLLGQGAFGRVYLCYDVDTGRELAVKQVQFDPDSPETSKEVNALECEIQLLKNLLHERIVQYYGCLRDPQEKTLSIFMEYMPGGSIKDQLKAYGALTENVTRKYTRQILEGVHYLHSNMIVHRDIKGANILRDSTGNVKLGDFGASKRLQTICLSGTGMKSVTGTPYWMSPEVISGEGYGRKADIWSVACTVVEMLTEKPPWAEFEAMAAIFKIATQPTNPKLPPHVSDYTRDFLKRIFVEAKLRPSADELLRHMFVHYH
T2 sequence (Q9BWU1 whole entry): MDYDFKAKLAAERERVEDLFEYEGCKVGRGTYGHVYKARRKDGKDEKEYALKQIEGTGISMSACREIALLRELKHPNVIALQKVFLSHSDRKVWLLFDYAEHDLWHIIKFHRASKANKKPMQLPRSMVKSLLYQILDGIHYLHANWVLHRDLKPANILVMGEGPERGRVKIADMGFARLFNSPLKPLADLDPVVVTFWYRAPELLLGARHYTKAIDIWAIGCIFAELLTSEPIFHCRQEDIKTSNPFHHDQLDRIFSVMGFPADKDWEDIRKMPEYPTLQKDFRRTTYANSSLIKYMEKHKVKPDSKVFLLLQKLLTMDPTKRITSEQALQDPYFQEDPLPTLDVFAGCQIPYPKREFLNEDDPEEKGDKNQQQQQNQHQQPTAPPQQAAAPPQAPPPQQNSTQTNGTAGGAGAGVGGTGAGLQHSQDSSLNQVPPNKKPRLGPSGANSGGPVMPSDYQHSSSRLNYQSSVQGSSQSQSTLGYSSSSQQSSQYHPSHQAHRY
T2 sequence (P24863 whole entry partner): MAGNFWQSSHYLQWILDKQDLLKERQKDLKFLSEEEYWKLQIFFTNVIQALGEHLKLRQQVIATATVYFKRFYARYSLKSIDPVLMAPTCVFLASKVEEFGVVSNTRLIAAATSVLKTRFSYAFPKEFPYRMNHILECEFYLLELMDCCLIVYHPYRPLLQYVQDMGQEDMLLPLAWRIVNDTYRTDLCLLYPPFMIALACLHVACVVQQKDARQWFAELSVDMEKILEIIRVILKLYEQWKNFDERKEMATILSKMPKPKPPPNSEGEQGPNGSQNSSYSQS
T16 sequence (Q9H2X6 whole entry): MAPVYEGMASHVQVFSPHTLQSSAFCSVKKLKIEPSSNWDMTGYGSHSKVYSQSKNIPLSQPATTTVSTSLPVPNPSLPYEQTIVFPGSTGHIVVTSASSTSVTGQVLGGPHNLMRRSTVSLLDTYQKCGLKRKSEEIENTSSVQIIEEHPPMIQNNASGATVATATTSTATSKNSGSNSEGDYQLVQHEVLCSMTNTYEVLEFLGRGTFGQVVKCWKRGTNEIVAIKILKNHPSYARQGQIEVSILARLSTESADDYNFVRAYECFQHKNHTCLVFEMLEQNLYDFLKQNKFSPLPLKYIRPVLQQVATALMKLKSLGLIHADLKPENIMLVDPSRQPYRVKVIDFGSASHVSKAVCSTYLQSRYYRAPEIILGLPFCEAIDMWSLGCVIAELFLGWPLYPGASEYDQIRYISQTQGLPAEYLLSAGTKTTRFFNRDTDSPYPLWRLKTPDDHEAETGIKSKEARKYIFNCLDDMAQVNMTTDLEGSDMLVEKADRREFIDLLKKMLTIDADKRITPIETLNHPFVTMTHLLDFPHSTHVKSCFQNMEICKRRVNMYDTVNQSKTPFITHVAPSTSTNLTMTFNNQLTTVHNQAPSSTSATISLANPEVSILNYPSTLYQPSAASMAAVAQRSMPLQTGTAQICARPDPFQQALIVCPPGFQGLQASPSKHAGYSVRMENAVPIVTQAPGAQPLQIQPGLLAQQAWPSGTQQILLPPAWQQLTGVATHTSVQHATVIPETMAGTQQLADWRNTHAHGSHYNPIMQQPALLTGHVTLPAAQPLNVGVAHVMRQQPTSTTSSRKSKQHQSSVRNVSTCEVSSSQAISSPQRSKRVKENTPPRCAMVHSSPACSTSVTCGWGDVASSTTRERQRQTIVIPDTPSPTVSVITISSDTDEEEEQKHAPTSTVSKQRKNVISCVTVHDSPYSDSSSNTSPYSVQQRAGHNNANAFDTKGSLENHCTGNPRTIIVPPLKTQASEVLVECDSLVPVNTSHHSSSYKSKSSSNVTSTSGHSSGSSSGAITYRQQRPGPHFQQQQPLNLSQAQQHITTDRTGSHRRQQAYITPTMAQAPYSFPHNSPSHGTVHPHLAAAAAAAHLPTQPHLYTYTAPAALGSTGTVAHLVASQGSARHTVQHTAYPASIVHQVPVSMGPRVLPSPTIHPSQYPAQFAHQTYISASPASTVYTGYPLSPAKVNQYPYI
T15 sequence (O15530 whole entry): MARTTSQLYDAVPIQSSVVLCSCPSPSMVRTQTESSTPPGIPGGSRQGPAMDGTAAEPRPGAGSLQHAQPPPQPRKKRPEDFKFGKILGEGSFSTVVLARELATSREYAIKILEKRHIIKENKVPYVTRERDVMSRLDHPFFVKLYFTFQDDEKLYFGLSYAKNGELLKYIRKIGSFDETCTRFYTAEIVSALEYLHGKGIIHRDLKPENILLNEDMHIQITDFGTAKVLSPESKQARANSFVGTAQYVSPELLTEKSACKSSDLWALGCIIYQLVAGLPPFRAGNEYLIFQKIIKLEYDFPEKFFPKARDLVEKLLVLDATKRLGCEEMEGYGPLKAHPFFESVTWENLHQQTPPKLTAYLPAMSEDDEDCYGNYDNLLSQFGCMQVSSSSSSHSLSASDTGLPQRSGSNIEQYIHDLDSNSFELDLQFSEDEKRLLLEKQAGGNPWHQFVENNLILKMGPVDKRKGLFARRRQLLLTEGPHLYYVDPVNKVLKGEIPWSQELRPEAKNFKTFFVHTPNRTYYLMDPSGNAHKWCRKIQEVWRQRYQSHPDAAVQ
T21 sequence (Q9H2K8 whole entry): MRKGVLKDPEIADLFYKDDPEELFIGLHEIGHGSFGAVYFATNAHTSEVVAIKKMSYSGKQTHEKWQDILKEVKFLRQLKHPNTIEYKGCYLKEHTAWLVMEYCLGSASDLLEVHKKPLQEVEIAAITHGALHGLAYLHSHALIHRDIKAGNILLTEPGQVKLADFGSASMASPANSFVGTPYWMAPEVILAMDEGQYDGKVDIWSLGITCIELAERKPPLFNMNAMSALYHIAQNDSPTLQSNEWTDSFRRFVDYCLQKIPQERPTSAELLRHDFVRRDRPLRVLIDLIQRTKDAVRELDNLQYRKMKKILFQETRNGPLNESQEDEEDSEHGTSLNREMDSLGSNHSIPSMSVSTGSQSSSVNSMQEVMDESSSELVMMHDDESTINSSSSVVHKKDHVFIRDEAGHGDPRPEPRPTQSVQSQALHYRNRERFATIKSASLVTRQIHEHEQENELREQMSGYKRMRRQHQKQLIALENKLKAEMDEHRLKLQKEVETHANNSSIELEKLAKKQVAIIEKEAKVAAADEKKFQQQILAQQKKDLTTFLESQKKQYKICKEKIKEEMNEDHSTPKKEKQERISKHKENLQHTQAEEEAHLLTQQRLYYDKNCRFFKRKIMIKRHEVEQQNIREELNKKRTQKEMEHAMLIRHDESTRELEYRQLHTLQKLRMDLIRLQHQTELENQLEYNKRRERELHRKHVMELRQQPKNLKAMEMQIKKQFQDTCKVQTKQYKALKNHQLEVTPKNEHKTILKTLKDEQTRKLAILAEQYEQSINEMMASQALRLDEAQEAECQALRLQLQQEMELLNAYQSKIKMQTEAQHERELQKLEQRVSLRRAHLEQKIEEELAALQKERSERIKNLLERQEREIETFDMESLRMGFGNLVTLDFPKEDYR

In the case of Cc1cnc(N[C@H]2CC[C@H](N)CC2)nc1-c1cnc2ccc(-c3ccccc3)cn12 [CDDD11-8], the remaining activity at 1 µM [1] is reported as 47.3%, the remaining activity at 1 µM [2] is reported as 38% and the remaining activity at 1 µM [3] is reported as 76.8%. It also gave a remaining activity at 1 µM [4] of 105%, a remaining activity at 1 µM [5] of 49.5% and a remaining activity at 1 µM [6] of 43%. It also gave a remaining activity at 1 µM [7] of 87%, a remaining activity at 1 µM [8] of 98.6% and a remaining activity at 1 µM [9] of 97.2%. It also gave a remaining activity at 1 µM [10] of 105%, a remaining activity at 1 µM [11] of 92.7% and a remaining activity at 1 µM [12] of 8.86%. The remaining activity at 1 µM [13] was 63.1%, the remaining activity at 1 µM [14] was 30.2% and the remaining activity at 1 µM [15] was 105%. It also gave a remaining activity at 1 µM [16] of 104%, a remaining activity at 1 µM [17] of 100% and a remaining activity at 1 µM [18] of 41.5%. For the same molecule, the remaining activity at 1 µM [19] was 92.9%, the remaining activity at 1 µM [20] was 76.4% and the remaining activity at 1 µM [21] was 48.6%. It also gave a remaining activity at 1 µM [22] of 108%, a remaining activity at 1 µM [23] of 17.6% and a remaining activity at 1 µM [24] of 92.5%. It also gave a remaining activity at 1 µM [25] of 40.2%, a remaining activity at 1 µM [26] of 89.8% and a remaining activity at 1 µM [27] of 77.8%. The remaining activity at 1 µM [28] was 60.4%, the remaining activity at 1 µM [29] was 55% and the remaining activity at 1 µM [30] was 108%.
